# Measured values published in patent US20140093513A1, “METHODS OF LOWERING PROPROTEIN CONVERSATE SUBTILISIN/KEXIN TYPE 9 (PCSK9)” (Catabasis Pharmaceuticals, Inc., priority 2012, published 2014).
# Tested on: PCSK9
# Assay: PCSK9 secretion assay in HepG2 cells (PCSK9 ELISA)
# Format: cell-based
# Details: HepG2 cells, 16 hours incubation, at least 6 concentrations
# Protocol: HepG2 cells (from ATCC, Catalog no. HB-8065) were maintained in DMEM (Invitrogen) supplemented with 10% fetal bovine serum (Invitrogen). The day prior to the PCSK9 assay, cells are seeded in 96-well collagen coated plates at 25,000 cells/well.
# The compounds of the invention were stored at −20° C. until used. The test article compound was dissolved in 100% ethanol to a 50 mM stock solution. This was then diluted in FBS to a final concentration of 1 mM. This solution was placed in a sonicating water bath for 30 minutes. Subsequent dilutions were then made in FBS supplemented with an equivalent volume of ethanol and mixed by vortexing.
# HepG2 cells were seeded onto a collagen coated 96-well plate (Becton Dickinson, Catalog no. 35-4407) the day prior to the assay, as described above. The next day, the cell medium was removed, washed once with 100 μL serum free DMEM to remove any residual PCSK9, and replaced with 90 μL of serum free DMEM. Ten microliters of each compound concentration prepared in FBS was then added. Each concentration of compound was tested in triplicate. The compound was incubated with the cells overnight for 16 hours. Following this incubation, 10 μL of AlamarBlue was added to each well and cells incubated for another 2 hours. The plates were then removed and AlamarBlue fluorescence was measured (excitation, 550 nm and […]) to assess cell viability. Cell culture supernatant was then diluted […] 1×RDSP Calibrator Diluent and PCSK9 ELISA was then performed with 50 μL of this diluted sample, as per the manufacturer's instructions. The ELISA was measured on a Victor X5 multilabel plate reader (PerkinElmer) at an absorbance of 450 nm with background correction measured at 550 nm (The PCSK9 Elisa kits can be purchased from R&D System, Catalog no. DPC900).
# Alternatively, an IC50 could also be obtained when this type of assay was carried out using at least 6 different concentrations of the test compounds. Table 1 lists the IC50 values for the compounds tested in this assay.
row,Structure (SMILES),IC50
1,"CC/C=C\C/C=C\C/C=C\C/C=C\C/C=C\CCCC(=O)N1CC[C@H](NC(=O)C2=CC(=O)C(C)(c3ccccc3)O2)C1 (stereo partly drawn) [VII-4, N—((S)-1-((5Z,8Z,11Z,14Z,17Z)-icosa-5,8,11,14,17-pentaenoyl)pyrrolidin-3-yl)-5-methyl-4-oxo-5-phenyl-4,5-dihydrofuran-2-carboxamide]",< 25 µM
2,"CC/C=C\C/C=C\C/C=C\C/C=C\C/C=C\CCCC(=O)NCCNC(=O)c1ccccn1 [II-9, N-(2-((5Z,8Z,11Z,14Z,17Z)-icosa-5,8,11,14,17-pentaenamido)ethyl)picolinamide]",25 to 50 µM
3,"CC/C=C\C/C=C\C/C=C\C/C=C\C/C=C\CCCC(=O)NCCNC(=O)c1cccnc1C [VI-6, N-(2-((5Z,8Z,11Z,14Z,17Z)-icosa-5,8,11,14,17-pentaenamido)ethyl)-2-methylnicotinamide]",25 to 50 µM
4,"CC/C=C\C/C=C\C/C=C\C/C=C\C/C=C\C/C=C\CCC(=O)N(C)CCNC(=O)c1cccnc1 [Compound I-14, N-(2-((4Z,7Z,10Z,13Z,16Z,19Z)—N-methyldocosa-4,7,10,13,16,19-hexaenamido)ethyl)nicotinamide]",< 25 µM
5,"CC/C=C\C/C=C\C/C=C\C/C=C\C/C=C\CCCC(=O)N[C@H]1CCN(C(=O)c2cccnc2)C1 [Compound I-23, (5Z,8Z,11Z,14Z,17Z)—N—((S)-1-nicotinoylpyrrolidin-3-yl)icosa-5,8,11,14,17-pentaenamide]",< 25 µM
6,"CC/C=C\C/C=C\C/C=C\C/C=C\C/C=C\CCCC(=O)N1CC[C@H](NC(=O)C(C)(C)Oc2ccc(C(=O)c3ccc(Cl)cc3)cc2)C1 [VII-22, 2-(4-(4-chlorobenzoyl)phenoxy)-N—((S)-1-((5Z,8Z,11Z,14Z,17Z)-icosa-5,8,11,14,17-pentaenoyl)pyrrolidin-3-yl)-2-methylpropanamide]",< 25 µM
7,"CC/C=C\C/C=C\C/C=C\C/C=C\C/C=C\CCCC(=O)N1CC[C@H](NC(=O)c2cnc(C)c[n+]2[O-])C1 [VII-12, 2-(((S)-1-((5Z,8Z,11Z,14Z,17Z)-icosa-5,8,11,14,17-pentaenoyl)pyrrolidin-3-yl)carbamoyl)-5-methylpyrazine 1-oxide]",> 50 µM
8,"CC/C=C\C/C=C\C/C=C\C/C=C\C/C=C\CCCC(=O)N1CCN(C(=O)C(C)(C)Oc2ccc(C(=O)c3ccc(Cl)cc3)cc2)CC1 [VII-42, (5Z,8Z,11Z,14Z,17Z)-1-(4-(2-(4-(4-chlorobenzoyl)phenoxy)-2-methylpropanoyl)piperazin-1-yl)icosa-5,8,11,14,17-pentaen-1-one]",< 25 µM
9,"CC/C=C\C/C=C\C/C=C\C/C=C\C/C=C\CCCC(=O)N1CCC[C@@H]1CNC(=O)C(C)(C)Oc1ccc(C(=O)c2ccc(Cl)cc2)cc1 [VII-23, 2-(4-(4-chlorobenzoyl)phenoxy)-N—(((R)-1-((5Z,8Z,11Z,14Z,17Z)-icosa-5,8,11,14,17-pentaenoyl)pyrrolidin-2-yl)methyl)-2-methylpropanamide]",< 25 µM
10,"CC/C=C\C/C=C\C/C=C\C/C=C\C/C=C\C/C=C\CCC(=O)NCCOCCOCCOCCOC [III-3, (4Z,7Z,10Z,13Z,16Z,19Z)—N-(2,5,8,11-tetraoxamidecan-13-yl)docosa-4,7,10,13,16,19-hexaenamide]",< 25 µM
11,"CC/C=C\C/C=C\C/C=C\C/C=C\C/C=C\CCCC(=O)NCCNC(=O)c1cccnc1-c1ccccc1 [VI-4, N-(2-((5Z,8Z,11Z,14Z,17Z)-icosa-5,8,11,14,17-pentaenamido)ethyl)-2-phenylnicotinamide]",> 50 µM
12,"CC/C=C\C/C=C\C/C=C\C/C=C\C/C=C\CCCC(=O)N1CCC[C@H]1CNC(=O)c1cccnc1 [Compound I-34, N—(((S)-1-((5Z,8Z,11Z,14Z,17Z)-icosa-5,8,11,14,17-pentaenoyl)pyrrolidin-2-yl)methyl)nicotinamide]",< 25 µM
13,"CC/C=C\C/C=C\C/C=C\C/C=C\C/C=C\CCCC(=O)N1CCC(CNC(=O)c2cccnc2)CC1 [Compound I-31, N-((1-((5Z,8Z,11Z,14Z,17Z)-icosa-5,8,11,14,17-pentaenoyl)piperidin-4-yl)methyl)nicotinamide]",< 25 µM
14,"CC/C=C\C/C=C\C/C=C\C/C=C\C/C=C\CCCC(=O)NCCNC(=O)c1ccc(CCN2CCCC2)nc1 [Compound V-8, N-(2-((5Z,8Z,11Z,14Z,17Z)-icosa-5,8,11,14,17-pentaenamido)ethyl)-6-(2-(pyrrolidin-1-yl)ethyl)nicotinamide]",< 25 µM
15,"CC/C=C\C/C=C\C/C=C\C/C=C\C/C=C\CCCC(=O)N1CCC(CNC(=O)C(C)(C)Oc2ccc(C(=O)c3ccc(Cl)cc3)cc2)CC1 [VII-20, 2-(4-(4-chlorobenzoyl)phenoxy)-N-((1-((5Z,8Z,11Z,14Z,17Z)-icosa-5,8,11,14,17-pentaenoyl)piperidin-4-yl)methyl)-2-methylpropanamide]",< 25 µM
16,"CC/C=C\C/C=C\C/C=C\C/C=C\C/C=C\CCCC(=O)N1CCC(NC(=O)C(C)(C)Oc2ccc(C(=O)c3ccc(Cl)cc3)cc2)CC1 [VII-19, 2-(4-(4-chlorobenzoyl)phenoxy)-N-(1-((5Z,8Z,11Z,14Z,17Z)-icosa-5,8,11,14,17-pentaenoyl)piperidin-4-yl)-2-methylpropanamide]",< 25 µM
17,"CC/C=C\C/C=C\C/C=C\C/C=C\C/C=C\CCCC(=O)N1CCC(CN(C)C(=O)C2=CC(=O)C(C)(c3ccccc3)O2)CC1 (stereo not drawn) [VII-8, N-((1-((5Z,8Z,11Z,14Z,17Z)-icosa-5,8,11,14,17-pentaenoyl)piperidin-4-yl)methyl)-N,5-dimethyl-4-oxo-5-phenyl-4,5-dihydrofuran-2-carboxamide]",< 25 µM
18,"CC/C=C\C/C=C\C/C=C\C/C=C\C/C=C\CCCC(=O)N1CCC(N(C)C(=O)C2=CC(=O)C(C)(c3ccccc3)O2)CC1 (stereo not drawn) [VII-7, N-(1-((5Z,8Z,11Z,14Z,17Z)-icosa-5,8,11,14,17-pentaenoyl)piperidin-4-yl)-N,5-dimethyl-4-oxo-5-phenyl-4,5-dihydrofuran-2-carboxamide]",< 25 µM
